Test results as given in the supplement of paper PMC5908809.

Legend:
[1] = tested on: normal NK cells expanded with K562-aAPC; assay: percent inhibition of viability; higher = more inhibition; details: 72 h, IL-2 2.5 ng/mL
Method: (§1)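 Drug sensitivity and resistance testing on K562-aAPC-expanded normal NK cells: 5 concentrations (10-fold steps over a 10,000-fold range), 72 h at 37 °C, viability by CellTiter-Glo normalised to DMSO and benzethonium chloride controls; DSS from the fitted curve.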

DERL-7 (IL-2 2.5 ng/mL) [2] = assay: as above; details: 72 h
IMC-1 (IL-2 20 ng/mL) [3] = assay: as above; details: 72 h
KAI3 (IL-2 2.5 ng/mL) [4] = assay: as above; details: 72 h
KHYG-1 (IL-2 2.5 ng/mL) [5] = assay: as above; details: 72 h
NK-92 (IL-2 2.5 ng/mL) [6] = assay: as above; details: 72 h
NK-YS (IL-2 2.5 ng/mL) [7] = assay: as above; details: 72 h
NKL (IL-2 2.5 ng/mL) [8] = assay: as above; details: 72 h
SNK-6 (IL-2 2.5 ng/mL) [9] = assay: as above; details: 72 h
YT (IL-2 2.5 ng/mL) [10] = assay: as above; details: 72 h
[11] = tested on: normal primary NK cells, pool 1 (3 donors) (IL-2 2.5 ng/mL); assay: as above; details: 72 h
[12] = tested on: normal primary NK cells, pool 1 (3 donors), resting (IL-2 0 ng/mL); assay: as above; details: 72 h
[13] = tested on: normal primary NK cells, pool 2 (3 donors) (IL-2 2.5 ng/mL); assay: as above; details: 72 h
[14] = tested on: normal primary NK cells, pool 3 (3 donors) (IL-2 2.5 ng/mL); assay: as above; details: 72 h
[15] = tested on: normal NK cells expanded with K562-aAPC; assay: drug sensitivity score (DSS) (DSS units); higher = more sensitive; extreme values may be limits of the assay; details: 72 h; IL-2 2.5 ng/mL
Method: as §1

DERL-7 (IL-2 2.5 ng/mL) [16] = assay: as above; details: 72 h
IMC-1 (IL-2 20 ng/mL) [17] = assay: as above; details: 72 h
KAI3 (IL-2 2.5 ng/mL) [18] = assay: as above; details: 72 h
KHYG-1 (IL-2 2.5 ng/mL) [19] = assay: as above; details: 72 h
NK-92 (IL-2 2.5 ng/mL) [20] = assay: as above; details: 72 h
NK-YS (IL-2 2.5 ng/mL) [21] = assay: as above; details: 72 h
NKL (IL-2 2.5 ng/mL) [22] = assay: as above; details: 72 h
SNK-6 (IL-2 2.5 ng/mL) [23] = assay: as above; details: 72 h
YT (IL-2 2.5 ng/mL) [24] = assay: as above; details: 72 h
[25] = tested on: normal primary NK cells, pool 1 (3 donors) (IL-2 2.5 ng/mL); assay: as above; details: 72 h
[26] = tested on: normal primary NK cells, pool 1 (3 donors), resting (IL-2 0 ng/mL); assay: as above; details: 72 h
[27] = tested on: normal primary NK cells, pool 2 (3 donors) (IL-2 2.5 ng/mL); assay: as above; details: 72 h
[28] = tested on: normal primary NK cells, pool 3 (3 donors) (IL-2 2.5 ng/mL); assay: as above; details: 72 h

Cc1cc(C(C)Nc2ccccc2)c2nc(N3CCOCC3)cc(=O)n2c1 (configuration not stated) [TGX-221] (max concentration tested 10000 nM)
percent inhibition of viability [%]
Details | 1 nM | 10 nM | 100 nM | 1000 nM | 10000 nM
DERL-7 (IL-2 2.5 ng/mL) [2] | 0.96 | -2.74 | -1.99 | 1.82 | 27.4
IMC-1 (IL-2 20 ng/mL) [3] | -6.36 | -5.05 | -4.93 | -4.5 | -0.86
KAI3 (IL-2 2.5 ng/mL) [4] | -3.13 | -6.25 | -6.02 | 4.84 | 23.6
KHYG-1 (IL-2 2.5 ng/mL) [5] | 2.88 | 11.7 | 4.06 | 7.54 | 14.4
NK-92 (IL-2 2.5 ng/mL) [6] | 2.02 | 4.62 | 5.66 | 32.2 | 31.8
NK-YS (IL-2 2.5 ng/mL) [7] | -2.78 | -1.69 | -1.28 | 2.25 | 27.1
NKL (IL-2 2.5 ng/mL) [8] | 2.96 | 0.41 | 10.3 | 15.5 | 28
SNK-6 (IL-2 2.5 ng/mL) [9] | 31 | 21.5 | 15.7 | 15.3 | -7.08
YT (IL-2 2.5 ng/mL) [10] | -1.99 | 2.32 | 1.97 | 11.6 | 28.1
[1] | -0.66 | 0.04 | 5.39 | 4.41 | 32.4
[11] | -13.5 | -0.76 | -6.33 | 4.04 | 29.7
[12] | -4.4 | 0.78 | -11.3 | 14.5 | 51.2
[13] | -16.6 | -10.3 | -4.51 | 4.63 | 29.4
[14] | -7.93 | -8.91 | -2.84 | 3.04 | 11.7

Details | drug sensitivity score
DERL-7 (IL-2 2.5 ng/mL) [16] | 1.37
IMC-1 (IL-2 20 ng/mL) [17] | 0
KAI3 (IL-2 2.5 ng/mL) [18] | 1.55
KHYG-1 (IL-2 2.5 ng/mL) [19] | 0
NK-92 (IL-2 2.5 ng/mL) [20] | 6.45
NK-YS (IL-2 2.5 ng/mL) [21] | 1.43
NKL (IL-2 2.5 ng/mL) [22] | 2.96
SNK-6 (IL-2 2.5 ng/mL) [23] | 0
YT (IL-2 2.5 ng/mL) [24] | 2.28
[15] | 2.2
[25] | 1.93
[26] | 4.9
[27] | 2
[28] | 0.14

COc1ncc(-c2ccc3nccc(-c4ccnnc4)c3c2)cc1NS(=O)(=O)c1ccc(F)cc1F [Omipalisib] (max concentration tested 1000 nM)
percent inhibition of viability [%]
Details | 0.1 nM | 1 nM | 10 nM | 100 nM | 1000 nM
DERL-7 (IL-2 2.5 ng/mL) [2] | 1.39 | 16.9 | 45.5 | 77.3 | 95.7
IMC-1 (IL-2 20 ng/mL) [3] | -0.58 | -1.71 | -11.8 | -32.5 | 29.1
KAI3 (IL-2 2.5 ng/mL) [4] | 2.3 | 36.1 | 15.3 | 35.5 | 62.9
KHYG-1 (IL-2 2.5 ng/mL) [5] | 1.89 | 1.24 | 8.6 | 40.2 | 91.6
NK-92 (IL-2 2.5 ng/mL) [6] | 3.62 | 20.4 | 32.1 | 48.6 | 69.9
NK-YS (IL-2 2.5 ng/mL) [7] | -0.6 | 1.69 | 13.2 | 53.7 | 73.3
NKL (IL-2 2.5 ng/mL) [8] | -9.37 | 0.19 | 6.59 | 54.9 | 80.4
SNK-6 (IL-2 2.5 ng/mL) [9] | 8.44 | 2.37 | -0.31 | 30.5 | 61.5
YT (IL-2 2.5 ng/mL) [10] | -0.94 | 1.51 | 27.5 | 54.4 | 79.8
[1] | 3.51 | 3.67 | 20.4 | 44.6 | 55.5
[11] | -10 | -4.5 | 18.5 | 20.1 | 40
[12] | 2.21 | 9.83 | 13.8 | 26.6 | 49.1
[13] | -6.47 | 2.05 | 24.7 | 24.7 | 47.5
[14] | -11.3 | -2.43 | 7.07 | 5.39 | 36.4

Details | drug sensitivity score
DERL-7 (IL-2 2.5 ng/mL) [16] | 21
IMC-1 (IL-2 20 ng/mL) [17] | 0.6
KAI3 (IL-2 2.5 ng/mL) [18] | 12.9
KHYG-1 (IL-2 2.5 ng/mL) [19] | 9.7
NK-92 (IL-2 2.5 ng/mL) [20] | 14.8
NK-YS (IL-2 2.5 ng/mL) [21] | 11.7
NKL (IL-2 2.5 ng/mL) [22] | 11.4
SNK-6 (IL-2 2.5 ng/mL) [23] | 7.24
YT (IL-2 2.5 ng/mL) [24] | 13.7
[15] | 10.6
[25] | 5.18
[26] | 6.75
[27] | 7.36
[28] | 2.64

COc1cccc2c1C(=O)c1c(O)c3c(c(O)c1C2=O)C[C@@](O)(C(C)=O)C[C@@H]3O[C@H]1C[C@H](N)[C@H](O)[C@H](C)O1 [Daunorubicin] (max concentration tested 1000 nM)
percent inhibition of viability [%]
Details | 0.1 nM | 1 nM | 10 nM | 100 nM | 1000 nM
DERL-7 (IL-2 2.5 ng/mL) [2] | -3.3 | -4.68 | 21.2 | 92.8 | 101
IMC-1 (IL-2 20 ng/mL) [3] | -9.54 | -10.2 | 16.5 | 98.7 | 101
KAI3 (IL-2 2.5 ng/mL) [4] | -5.78 | -13.2 | 19.7 | 61.9 | 106
KHYG-1 (IL-2 2.5 ng/mL) [5] | 1.81 | -4.06 | -1.19 | 93.7 | 109
NK-92 (IL-2 2.5 ng/mL) [6] | -16.2 | -14.1 | -9.07 | 89.9 | 109
NK-YS (IL-2 2.5 ng/mL) [7] | -2.31 | -8.67 | 23.9 | 77.1 | 106
NKL (IL-2 2.5 ng/mL) [8] | -2.22 | 6.13 | 88.5 | 104 | 109
SNK-6 (IL-2 2.5 ng/mL) [9] | -12.6 | -10.6 | -5.61 | 97.8 | 94.5
YT (IL-2 2.5 ng/mL) [10] | -3.13 | -9.89 | -7.78 | 93.8 | 110
[1] | -6.49 | -5.27 | 0.18 | 77.3 | 101
[11] | -16.8 | -3.87 | 17.1 | 94.1 | 98.6
[12] | -16.4 | -27.6 | 23.2 | 91.1 | 94
[13] | -11.1 | -1.9 | 13 | 92.7 | 94.4
[14] | -11.8 | -3.78 | 7.93 | 81.6 | 99.9

Details | drug sensitivity score
DERL-7 (IL-2 2.5 ng/mL) [16] | 19.7
IMC-1 (IL-2 20 ng/mL) [17] | 20.7
KAI3 (IL-2 2.5 ng/mL) [18] | 14.2
KHYG-1 (IL-2 2.5 ng/mL) [19] | 16.9
NK-92 (IL-2 2.5 ng/mL) [20] | 16
NK-YS (IL-2 2.5 ng/mL) [21] | 17.3
NKL (IL-2 2.5 ng/mL) [22] | 29.4
SNK-6 (IL-2 2.5 ng/mL) [23] | 17.1
YT (IL-2 2.5 ng/mL) [24] | 16.6
[15] | 14.4
[25] | 19.6
[26] | 20.5
[27] | 19.2
[28] | 16.1
